Measurements reported in patent US20060293351A1, “Promotion of wound healing” (priority 1999, published 2006).
Read-outs that look alike come from different tables or passages of the source.

Experiments:
collagen type III = assay: Collagen type III immunohistochemistry at the stricture site; type: in vivo, rats; details: diet containing Halofuginone after coagulation current treatment
Procedure: Immunohistochemistry with antibodies to collagen type III was performed on biopsies taken from control, untreated rats, rats treated with coagulation current alone and rats fed a diet containing Halofuginone after coagulation current treatment. […] The experimental method was as follows. Rats were treated and sections of biopsy tissue were prepared as described previously in Example 4. Immunohistochemistry was performed with primary antibodies against collagen type III (BioGenex. San Ramon, Calif., USA) and a Histomouse SP kit (Zymed Laboratories Inc., South San Francisco, Calif., USA) for the secondary antibodies. The primary antibodies were used in a 1:1000 dilution and detection was performed with the Histomouse SP kit according to the instructions of the manufacturer.

collagen α1(I) gene = assay: Northern blot of collagen α1(I) gene in urethral fibroblasts; type: cell-based, rat; details: Northern blot analysis
Procedure: Next, total RNA was isolated using the guanidinium-thiocyanate-phenol technique (Chomczynski, P. and N. Sacchi, Anal. Biochem., 162:156, 1987). RNA was subjected to 1% agarose denaturing gel electrophoresis, followed by blotting onto a nylon filter (GeneScreen Plus, New England Nuclear, Boston, Mass., USA). The probe for the collagen α1(I) gene was labeled using the random primer procedure with a commercial kit (Boehringer, Germany). Hybridization was performed overnight at 40° C. in a solution containing 10% dextran sulfate, 1% SDS, 1 M NaCl, 40% formamide and […] denatured herring sperm DNA. Hybridization was followed by two 30-minute washes in 2×SSC (1×SSC contains 0.15 M NaCl and 0.015 M sodium citrate), 1% SDS, and two 20 minute washes in 1×SSC, 0.1% SDS. The filters were exposed to X-ray film (Agfa-Curix) at −70° C., using intensifying screens.

collagen = assay: Collagen content at the stricture site (Sirius red staining); type: in vivo, rats
Procedure: The experiments were performed as follows. First, urethral catherization was performed on tile rats with a 23 G Quik-Cath (Baxter, Ireland) sheath. A spinal needle was inserted into the sheath, and was used to apply a coagulation current at a level of 10 W to the outer end of the needle for 1 second at three locations, 8, 10 and 12 mm from the meatus, in order to produce urethral strictures. Halofuginone was given for 7 days starting at the day of stricture formation, either orally at concentrations of 1 ppm and 5 ppm in the diet, or by injection of 0.03% Halofuginone dissolved in 2% lignocaine directly into the urethra once a day. After 21 days, the rats were sacrificed and the sutures were reopened to determine the level of urethral stricture formation, at which time biopsies of the tissue were taken. The tissue was sectioned so that histological studies could be performed. Briefly, the tissue samples were collected into phosphate-buffered saline (PBS) and fixed overnight in 4% paraformaldehyde in PBS at 4° C. Serial 5 μm sections were prepared after the samples had been dehydrated in graded ethanol solutions, cleared in chloroform and embedded in Paraplast. Differential staining of collagenous and non-collagenous proteins was performed with 0.1% Sirius red and 0.1% fast green as a counter-stain in picric acid. […]

[1] = test system: fibroblasts derived from rat urethra; assay: cells; type: cell-based
Procedure: Urethral fibroblasts were obtained from three normal male rats, and were processed under sterile conditions. The urethra was cut into 1-2 mm pieces and rinsed several times in a solution containing 0.2 ml/10 ml penicillin/streptomycin and 50 micrograms/ml gentamycin. Each piece of urethra was placed in a 1 ml well of a 24 well plate (Greiner Labortchnik, Germany). Each well was filled with DMEM (Dulbecco's Modified Eagle's Medium), containing […] of D-glucose. 25% FCS (fetal calf serum), 0.1 ml/10 ml penicillin/streptomycin, 0.1 ml/10 ml glutamine. 50 micrograms/ml gentamycin and 2.5 micrograms/ml amphotericin B. The wells were incubated in an incubator containing 5% CO2 at 37° C. Half of the medium was replaced after 10 days. Two to three days later the cultures were trypsinized with trypsin-EDTA medium. The content of each pair of wells was combined, resuspended in DMEM and placed into one 250-ml flask containing 5 ml of medium. When the cell cultures reached confluency, they were transferred to new flasks with a 1:5 ratio of old to new medium. The concentration of FCS was then decreased to 10%.
For the evaluation of the synthesis of CDP and NCDP, cells were incubated for 24 hours with various concentrations of Halofuginone in 0.5 m glutamine-free DMEM containing 5% FCS, ascorbic acid (50 micrograms/ml), β-aminopropionitrile (50 micrograms/ml) and 2 micro-curies of [^3H]proline. At the end of the incubation period, the medium was decanted and incubated with or without collagenase for 18 hours, followed by TCA precipitation. The amount of radiolabeled collagen was estimated as the difference between total [^3H]proline containing proteins and protein remaining after collagenase digestion.

chickens = details: in vivo; cited from earlier work
urethral strictures = type: in vivo, rats
From the text: Tile effect of Halofuginone in post-trauma stricture formation in rats was studied. Briefly, urethral strictures were induced by catheterization and application of an electrical current to the urethra of rats. The rats were divided into four groups: untreated rats as controls (FIG. 5A); rats treated with Halofuginone but not with coagulation current (FIG. 5B); rats treated with coagulation current alone (FIG. 5C); and rats treated with both Halofuginone and coagulation current (FIG. 5D-5F).
The experiments were performed as follows. First, urethral catherization was performed on anesthetized rats with a 23 G Quik-Cath (Baxter, Ireland) sheath. A spinal needle was inserted into the sheath, and was used to apply a coagulation current at a level of 10 W to the outer end of the needle for 1 second at three locations, 8, 10 and 12 mm from the meatus, in order to produce urethral strictures. Halofuginone was given for 7 days starting at the day of stricture formation, either orally at concentrations of 1 ppm and 5 ppm in the diet, or by injection of 0.03% Halofuginone dissolved in 2% lignocaine directly into the urethra once a day. Urethral gross morphology was evaluated by urethrogram after injecting contrast material (Telebrix Megalumine 300 mg/ml. Laboratorie, Guerbet, Aulnay Sous Bios, France) into the anesthetized rat through a 23 G Quik-Cath sheath, under fluoroscopy 3 weeks after stricture formation.

For `O=C(CC1NCCC[C@H]1O)Cn1cnc2cc(Br)c(Cl)cc2c1=O` (stereo partly drawn) [Halofuginone], the “levels of collagen type III” value (collagen type III) was “No significant changes”, the “expression of the collagen α1(I) gene” value (collagen α1(I) gene) was “specifically decreased the expression” and the “amount of collagen in the biopsies” value (collagen; given locally (FIG. 7D)) was “decreased the amount of collagen”. For the same compound, the “amount of collagen in the biopsies” value (collagen; given orally (FIG. 7C)) was “decreased the amount of collagen”, the number of cells [1] was “did not affect” and the “appearance of non-collagenase digestible proteins (NCDP)” value ([1]; 24 hours incubation) was “did not affect”. For the same compound, the inhibition at 0.01 µM ([1]; Rattus norvegicus, Fibroblast, 10^−8 M Halofuginone, 24 hours, read-out: inhibition of the levels of collagenase-digestible proteins (CDP)) was 40%, the skin tearing (chickens) was “increased skin tearing” and the stricture formation (urethral strictures; 1 ppm in the diet for 7 days with coagulation treatment) was “did not affect stricture formation”. The stricture formation (urethral strictures; 5 ppm in the diet for 7 days with coagulation treatment) was “did not have strictures”, the stricture formation (urethral strictures; locally administered (0.03% in 2% lignocaine into the urethra once a day, 7 days) with coagulation treatment) was “did not have strictures” and the stricture formation (urethral strictures; rat, in vivo) was “did not have any strictures”.
